The values below come from patent US20150119363A1, “METHODS OF TREATING BACTERIAL INFECTIONS” (Rampex Pharmaceuticals, Inc., priority 2012, published 2015).

Test [1] concerns Klebsiella pneumonia (KPM1097) NDM-1, KPC-2. Briefly: Biapenem MIC at various concentrations of Compound 5. The test is classed as cell-based. The settings on record: KPM1097 NDM-1, KPC-2.
For test [2], the target named is T1, KPC-2 (Klebsiella pneumoniae KP1008 lysate) (Klebsiella pneumoniae, UniProt Q9F663).
T1 construct: Lysates were prepared from bacteria expressing various β-lactamases as a source of enzymes; endogenous in cells; host or cells: Klebsiella pneumoniae strains KP1004 and KP1008 (freeze-thaw lysate supernatants)
T1 sequence (Q9F663 25-293 limits assumed): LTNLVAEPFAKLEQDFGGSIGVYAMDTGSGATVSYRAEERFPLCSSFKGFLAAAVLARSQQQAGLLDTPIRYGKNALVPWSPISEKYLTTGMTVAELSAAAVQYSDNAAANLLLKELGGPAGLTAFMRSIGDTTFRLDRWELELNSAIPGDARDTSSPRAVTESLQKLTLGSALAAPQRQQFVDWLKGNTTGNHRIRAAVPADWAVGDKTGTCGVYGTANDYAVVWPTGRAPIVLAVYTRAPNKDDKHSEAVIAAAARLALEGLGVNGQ
Briefly: Inhibition of biapenem hydrolysis by bacterial lysate. The test is classed as biochemical. How it is done: (§1) The activity of β-lactamase inhibitors to inhibit hydrolysis of biapenem was studied. Lysates were prepared from bacteria expressing various β-lactamases as a source of enzymes. Bacterial lysates were prepared as follows. A single colony from the fresh overnight plate was transferred to 5 mL of LB broth and grown to OD600=0.6-0.8. Next, this culture was transferred to 500 mL of LB and grown to OD600=0.7-0.9. Cells were pelleted by centrifugation at 5000 RPM (JA-14 rotor) for 15 minutes at room temperature. The pellet was resuspended in 10 mL of PBS. Five freeze-thaw cycles by putting cells at −20° C. and thawing them at the room temperature were next applied. After the last thaw step cells were spun down at 18K for 30 minutes and the supernatant was collected. This lysate was stored at −20° C.
(§2) Next, the activity of bacterial lysates was optimized for biapenem cleavage as follows. 50 μl of buffer A (50 mM Sodium Phosphate pH=7; 0.5% glucose, 1 mM MgCl2) was added to each well of 96-well UV-transparent plate. 50 μl of lysate was titrated vertically in 96-well plate column to generate 2-fold lysate dilutions. 100 μl of buffer A was added to each well, placed in plate reader at 37° C. and incubated for 15 minutes. 50 μl of 50 μg/mL solutions of biapenem in buffer A (pre-incubated at 37° C. for 15 minutes) were added to each well. Hydrolysis of biapenem was measured at 296 nm. This experiment was used to determine the optimal lysate dilution which produced a linear curve of relative UV signal that decreased to approximately OD=0.3-0.5 over 1 hour.
(§3) Finally, the potency of cyclic boronic acid derivative to inhibit the cleavage of biapenem cleavage by bacterial lysates was determined. 100 μl of buffer A (50 mM Sodium Phosphate pH=7; 0.5% glucose, 1 mM MgCl2) was added to each well of 96-well UV-transparent plate. 50 μl of 6× cyclic boronic acid derivative solution in buffer A was titrated vertically in 96-well plate column to generate 3-fold dilutions. 50 μl of diluted lysate in buffer A (optimal dilution is determined in experiment above) was added, and the plate was incubated in the plate reader at 37° C. for 15 minutes. 50 μl of 50 μg/mL solution of biapenem in buffer A (pre-incubated at 37° C. for 15 minutes) were next added to each well and hydrolysis of biapenem was recorded at 296 nm. EC50 of inhibition was determined by plotting the rate of biapenem cleavage vs. cyclic boronic acid derivative concentration.

Test [3] addresses T2, KPC-2 (Klebsiella pneumoniae KP1004 lysate) (Klebsiella pneumoniae, UniProt Q9F663).
T2 construct: Lysates were prepared from bacteria expressing various β-lactamases as a source of enzymes; endogenous in cells; host or cells: Klebsiella pneumoniae strains KP1004 and KP1008 (freeze-thaw lysate supernatants)
Described as above. The test is classed as biochemical. How it is done:
as §1, §2, §3

The target in test [4] is T3, KPC-3 (Escherichia coli EC1007 lysate) (Klebsiella pneumoniae, UniProt Q9F663, H272Y).
T3 construct: Lysates were prepared from bacteria expressing various β-lactamases as a source of enzymes; endogenous in cells; host or cells: Escherichia coli strain EC1007 (freeze-thaw lysate supernatant)
T3 sequence (Q9F663 25-293 H272Y): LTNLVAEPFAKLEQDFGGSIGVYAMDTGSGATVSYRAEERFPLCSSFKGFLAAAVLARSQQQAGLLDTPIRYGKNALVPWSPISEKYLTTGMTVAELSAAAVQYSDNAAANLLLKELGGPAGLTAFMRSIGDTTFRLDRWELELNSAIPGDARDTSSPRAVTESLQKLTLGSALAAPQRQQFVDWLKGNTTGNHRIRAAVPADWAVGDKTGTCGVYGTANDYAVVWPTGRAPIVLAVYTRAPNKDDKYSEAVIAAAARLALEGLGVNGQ
The test is described as above. In kind it is biochemical. The note with it: EC1007 KPC-3 lysate; read-out: IC50 (μg/mL) of inhibition of biapenem hydrolysis. How it is done: as §1, §2, §3

Test [5] deals with T4, SME-2 (Serratia marcescens SM1000 lysate) (Serratia marcescens, UniProt P52682).
T4 construct: Lysates were prepared from bacteria expressing various β-lactamases as a source of enzymes
T4 sequence (P52682 28-294 limits assumed): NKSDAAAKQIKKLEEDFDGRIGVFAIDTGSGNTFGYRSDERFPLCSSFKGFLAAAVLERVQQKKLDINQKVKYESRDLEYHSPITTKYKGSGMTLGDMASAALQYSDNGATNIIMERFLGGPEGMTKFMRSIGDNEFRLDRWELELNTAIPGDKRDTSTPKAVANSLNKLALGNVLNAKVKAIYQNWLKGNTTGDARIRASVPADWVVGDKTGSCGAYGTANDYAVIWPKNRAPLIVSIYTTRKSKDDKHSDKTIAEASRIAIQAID
Described as above. The settings on record: SM1000 SME-2 lysate; read-out: IC50 (μg/mL) of inhibition of biapenem hydrolysis. In kind it is biochemical. As for the experimental part: as §1, §2, §3

Test [6] relates to strains expressing KPC alone or in combination with additional beta-lactamases. The test is described as follows: Checkerboard assay, Compound 5 with biapenem (summary). The settings on record: highest concentration of Compound 5 10 mg/L. The test is classed as cell-based. The text has this:
The potentiation effect is observed by the reduction of the minimum inhibitory concentration of β-lactam antibiotics in the presence of β-lactamase inhibitors (BLIs). […] Methods for Dilution of Antimicrobial Susceptibility Tests for Bacteria That Grow Aerobically—Eighth Edition; Approved Standard. CLSI Document M07-A8, 2009). In this assay, multiple dilutions of two drugs, namely BLI and β-lactam (biapenem), are being tested, alone and in combination, at concentrations equal to, above and below their respective minimal inhibitory concentrations (MICs). BLIs are solubilized in 10% DMSO at 10 mg/mL. Stock solutions are further diluted, according to the needs of a particular assay, in Mueller Hinton Broth (MHB). Stock solution can be stored at −80° C.
The checkerboard (CB) assay is performed in microtiter plates. Biapenem is diluted in the x axis, each column containing a single concentration of antibiotic. BLIs are diluted in the y axis, each row containing an equal concentration of BLI. The result of these manipulations is that each well of the microtiter plate contains a unique combination of concentrations of the two agents. […] Microtiter plates are incubated during 20 h at 35° C. and are read using a microtiter plate reader (Molecular Devices) at 650 nm as well as visual observation using a microtiter plate reading mirror.

Test [7] concerns EC1007 KPC-3. The test is described as follows: Dose titration biapenem potentiation assay (MPC1). In kind it is cell-based, Escherichia coli. The note with it: biapenem 1 μg/mL. The method in brief:
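Growth of carbapenemase-expressing strains measured with biapenem held at a sub-inhibitory 1 μg/mL; BLI compounds titrated from a top concentration of 40 μg/mL. MPC1 is the inhibitor concentration that restores growth inhibition by biapenem.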

Test [8] has as its system KP1004 KPC-2. Briefly: Dose titration biapenem potentiation assay (MPC1). The test is classed as cell-based, Klebsiella pneumoniae. The note with it: biapenem 1 μg/mL.
In test [9] the test system is KP1008 KPC-2. The test is described as follows: Dose titration biapenem potentiation assay (MPC1). The test is classed as cell-based, Klebsiella pneumoniae. The settings on record: biapenem 1 μg/mL.
The subject of test [10] is Escherichia coli (EC1061) NDM-1. The test is described as follows: Biapenem MIC at various concentrations of Compound 5. The note with it: EC1061 NDM-1. In kind it is cell-based.

T2 sequence (Q9F663 25-293 limits assumed): as the sequence (Q9F663 25-293 limits assumed) above

Turning to `O=C(O)C[C@@H]1CC[C@H](NC(=O)Cc2cccs2)B(O)O1` [Compound 5, 2-((3R,6S)-2-hydroxy-3-(2-(thiophen-2-yl)acetamido)-1,2-oxaborinan-6-yl)acetic acid], the “Biapenem MIC” value in test [1] (Compound 5 0.31 μg/ml) is 2 µg/mL; in test [1] (Compound 5 0.63 μg/ml) it was 1 µg/mL; in [1] (Compound 5 5 μg/ml), 1 µg/mL; in [1] (Compound 5 10 μg/ml) it was 1 µg/mL; in test [1] (Compound 5 20 μg/ml), 1 µg/mL; in [1] (Compound 5 […]) it was 1 µg/mL. Besides, the “Biapenem MIC” value in test [10] (Compound 5 0.31 μg/ml) worked out at 0.13 µg/mL; in test [10] (Compound 5 0.63 μg/ml) it was 0.13 µg/mL; in test [10] (Compound 5 5 μg/ml), 0.125 µg/mL; in test [10] (Compound 5 10 μg/ml), 0.06 µg/mL; in [10] (Compound 5 20 μg/ml), 0.06 µg/mL. In addition, the IC50 was 337 to 3370 nM in [2], < 337 nM in test [3], < 337 nM in test [4] and < 337 nM in test [5]. For the same compound, the potentiation of biapenem result in test [6] was “significantly potentiate biapenem”. Further, the “BPM MPC1 EC1007 KPC-3” value in test [7] is “X (X = MPC1 of less than 1 μg/mL.)”. In test [8], the “BPM MPC1 KP1004 KPC-2” value was “X (X = MPC1 of less than 1 μg/mL.)”. In addition, in test [9], the “BPM MPC1 KP1008 KPC-2” value is given as “X (X = MPC1 of less than 1 μg/mL.)”.
